{"source": "patent US20230364193A1", "about": "“COMBINED DRUG FOR TREATING CORONARIVUS DISEASE 2019” (SICHUAN UNIVERSITY WEST CHINA HOSPITAL, priority 2020, published 2023)", "test_system": "SARS-CoV-2 virus", "assay": "microbe, parasite or virus in culture", "conditions": "Vero-E6", "note": "Read-outs that look alike come from different tables or passages of the source."}
{"smiles": "CCN(CC)CCCC(C)Nc1ccnc2cc(Cl)ccc12", "note": "(stereo not drawn) [Chloroquine]", "values": [{"measurement": "EC50", "setting": "Severe acute respiratory syndrome coronavirus 2, Vero C1008, read-out: EC50 Experiment 1, MOI: 0.005 (50 PFU)", "value": 1.7, "unit": "µM"}, {"measurement": "EC50", "setting": "Severe acute respiratory syndrome coronavirus 2, Vero C1008, read-out: EC50 Experiment 1, MOI: 0.05 (500 PFU)", "value": 3.65, "unit": "µM"}, {"measurement": "EC50", "setting": "Severe acute respiratory syndrome coronavirus 2, Vero C1008, read-out: EC50 Experiment 1, MOI: 0.5 (5000 PFU)", "value": 5.25, "unit": "µM"}, {"measurement": "EC50", "setting": "Severe acute respiratory syndrome coronavirus 2, Vero C1008, read-out: EC50 Experiment 2, MOI: 0.005 (50 PFU)", "value": 1.77, "unit": "µM"}, {"measurement": "EC50", "setting": "Severe acute respiratory syndrome coronavirus 2, Vero C1008, read-out: EC50 Experiment 2, MOI: 0.05 (500 PFU)", "value": 4.23, "unit": "µM"}, {"measurement": "EC50", "setting": "Severe acute respiratory syndrome coronavirus 2, Vero C1008, read-out: EC50 Experiment 2, MOI: 0.5 (5000 PFU)", "value": 5.72, "unit": "µM"}, {"measurement": "EC50", "setting": "Severe acute respiratory syndrome coronavirus 2, Vero C1008, read-out: EC50 Experiment 3, MOI: 0.005 (50 PFU)", "value": 2.34, "unit": "µM"}, {"measurement": "EC50", "setting": "Severe acute respiratory syndrome coronavirus 2, Vero C1008, read-out: EC50 Experiment 3, MOI: 0.05 (500 PFU)", "value": 2.34, "unit": "µM"}, {"measurement": "EC50", "setting": "Severe acute respiratory syndrome coronavirus 2, Vero C1008, read-out: EC50 Experiment 3, MOI: 0.5 (5000 PFU)", "value": 5.04, "unit": "µM"}, {"measurement": "EC50", "setting": "Severe acute respiratory syndrome coronavirus 2, Vero C1008, read-out: EC50 means, MOI: 0.005 (50 PFU), mean of 3 experiments", "value": 1.94, "unit": "µM"}, {"measurement": "EC50", "setting": "Severe acute respiratory syndrome coronavirus 2, Vero C1008, read-out: EC50 means, MOI: 0.05 (500 PFU), mean of 3 experiments", "value": 3.41, "unit": "µM"}, {"measurement": "EC50", "setting": "Severe acute respiratory syndrome coronavirus 2, Vero C1008, read-out: EC50 means, MOI: 0.5 (5000 PFU), mean of 3 experiments", "value": 5.34, "unit": "µM"}]}
